According to patent US5137892A, “Quinoline, naphthyridine and pyridobenzoxazine derivatives” (Abbott Laboratories, priority 1990, dated 1992):
≈ marks a conversion by molar mass, not a printed value.

Assays:
Assay in all cases: In Vitro Antibacterial Activity, agar dilution MIC
Assay type in all cases: cell-based
[1] = tested on: Micrococcus luteus ATCC 4698; settings: M. luteus ATCC 4698; BHI agar dilution, 20-24 hours; unit assumed
Experimental: (§1) The activity of the compounds of the present invention was tested against a wide variety of bacteria using standard assay procedures. Minimum inhibitory concentrations (MICs) were determined by the agar dilution method, described below, using Brain Heart Infusion agar.
(§2) Twelve petri dishes were prepared, each containing successive aqueous 2-fold dilutions of the test compounds mixed with 10 mL of sterilized Brain Heart Infusion (BHI) agar. Each plate was inoculated with 100-fold (or 10-fold, for slow-growing strains such as Micrococcus and Streptococcus) dilutions of up to 32 different microorganisms using a Steers replicator block calibrated to deliver approximately 10^4 colony forming units (CFUs). The inoculated plates were incubated at about 35°-37° C. for approximately 20-24 hours. In addition, a control plate, using BHI agar containing no test compound, was prepared and incubated at the beginning and at the end of each test. Ciprofloxacin was used as the reference antibiotic.
(§3) The MIC was defined as the lowest concentration of test compound yielding no growth (a slight haze or sparsely isolated colonies at the inoculum spot as compared to the growth control contaning no test compound.

[2] = tested on: Escherichia coli KNK 437; settings: E. coli KNK 437; BHI agar dilution, 20-24 hours; unit assumed
Experimental: as §1, §2, §3

[3] = tested on: Enterobacter aerogenes ATCC 13048; settings: E. aerogenes ATCC 13048; BHI agar dilution, 20-24 hours; unit assumed
Experimental: as §1, §2, §3

[4] = tested on: Klebsiella pneumoniae ATCC 8045; settings: K. pneumoniae ATCC 8045; BHI agar dilution, 20-24 hours; unit assumed
Experimental: as §1, §2, §3

[5] = tested on: Staphylococcus aureus A5177; settings: S. aureus A5177; BHI agar dilution, 20-24 hours; unit assumed
Experimental: as §1, §2, §3

[6] = tested on: Acinetobacter SP CMX 699; settings: BHI agar dilution, 20-24 hours, unit assumed
Experimental: as §1, §2, §3

[7] = tested on: Micrococcus luteus ATCC 9341; settings: M. luteus ATCC 9341; BHI agar dilution, 20-24 hours; unit assumed
Experimental: as §1, §2, §3

[8] = tested on: Pseudomonas aeruginosa BMH10; settings: P. aeruginosa BMH10; BHI agar dilution, 20-24 hours; unit assumed
Experimental: as §1, §2, §3

[9] = tested on: Streptococcus agalactaciae CMX 508; settings: S. agalactaciae CMX 508; BHI agar dilution, 20-24 hours; unit assumed
Experimental: as §1, §2, §3

[10] = tested on: Streptococcus pyogenes 2548 INDUC; settings: S. pyogenes 2548 INDUC; BHI agar dilution, 20-24 hours; unit assumed
Experimental: as §1, §2, §3

[11] = tested on: Providencia stuartii CMX 640; settings: P. stuartii CMX 640; BHI agar dilution, 20-24 hours; unit assumed
Experimental: as §1, §2, §3

[12] = tested on: Escherichia coli DC-2; settings: E. coli DC-2; BHI agar dilution, 20-24 hours; unit assumed
Experimental: as §1, §2, §3

[13] = tested on: Streptococcus pyogenes 930 CONST; settings: S. pyogenes 930 CONST; BHI agar dilution, 20-24 hours; unit assumed
Experimental: as §1, §2, §3

[14] = tested on: Pseudomonas aeruginosa A5007; settings: P. aeruginosa A5007; BHI agar dilution, 20-24 hours; unit assumed
Experimental: as §1, §2, §3

[15] = tested on: Staphylococcus epidermidis 3519; settings: S. epidermidis 3519; BHI agar dilution, 20-24 hours; unit assumed
Experimental: as §1, §2, §3

[16] = tested on: Enterococcus faecium ATCC 8043; settings: E. faecium ATCC 8043; BHI agar dilution, 20-24 hours; unit assumed
Experimental: as §1, §2, §3

[17] = tested on: Escherichia coli JUHL; settings: E. coli JUHL; BHI agar dilution, 20-24 hours; unit assumed
Experimental: as §1, §2, §3

[18] = tested on: Escherichia coli H560; settings: E. coli H560; BHI agar dilution, 20-24 hours; unit assumed
Experimental: as §1, §2, §3

[19] = tested on: Staphylococcus aureus ATCC 6538P; settings: S. aureus ATCC 6538P; BHI agar dilution, 20-24 hours; unit assumed
Experimental: as §1, §2, §3

[20] = tested on: Staphylococcus aureus CMX 553; settings: S. aureus CMX 553; BHI agar dilution, 20-24 hours; unit assumed
Experimental: as §1, §2, §3

[21] = tested on: Pseudomonas aeruginosa K799/WT; settings: P. aeruginosa K799/WT; BHI agar dilution, 20-24 hours; unit assumed
Experimental: as §1, §2, §3

[22] = tested on: Escherichia coli SS; settings: E. coli SS; BHI agar dilution, 20-24 hours; unit assumed
Experimental: as §1, §2, §3

[23] = tested on: Staphylococcus aureus 45; settings: S. aureus 45; BHI agar dilution, 20-24 hours; unit assumed
Experimental: as §1, §2, §3

[24] = tested on: Staphylococcus aureus NCTC 10649; settings: S. aureus NCTC 10649; BHI agar dilution, 20-24 hours; unit assumed
Experimental: as §1, §2, §3

[25] = tested on: Pseudomonas cepacia 2961; settings: P. cepacia 2961; BHI agar dilution, 20-24 hours; unit assumed
Experimental: as §1, §2, §3

[26] = tested on: Streptococcus pyogenes EES61; settings: S. pyogenes EES61; BHI agar dilution, 20-24 hours; unit assumed
Experimental: as §1, §2, §3

[27] = tested on: Staphylococcus aureus 45 RAR2; settings: S. aureus 45 RAR2; BHI agar dilution, 20-24 hours; unit assumed
Experimental: as §1, §2, §3

[28] = tested on: Staphylococcus aureus 642A; settings: S. aureus 642A; BHI agar dilution, 20-24 hours; unit assumed
Experimental: as §1, §2, §3

[29] = tested on: Streptococcus bovis A5169; settings: S. bovis A5169; BHI agar dilution, 20-24 hours; unit assumed
Experimental: as §1, §2, §3

SMILES: CN(C)CC1COC2(CCN(c3nc4c(cc3F)c(=O)c(C(=O)O)cn4-c3ccc(F)cc3F)C2)O1 (centres unmarked) [Example 445]
- MIC values [1]: 12.5 µg/mL (≈ 24.8 µM)
- MIC values [2]: 12.5 µg/mL (≈ 24.8 µM)
- MIC values [3]: 3.1 µg/mL (≈ 6.15 µM)
- MIC values [4]: 1.56 µg/mL (≈ 3.09 µM)
- MIC values [5]: 0.39 µg/mL (≈ 0.773 µM)
- MIC values [6]: 6.2 µg/mL (≈ 12.3 µM)
- MIC values [7]: 12.5 µg/mL (≈ 24.8 µM)
- MIC values [8]: 12.5 µg/mL (≈ 24.8 µM)
- MIC values [9]: 1.58 µg/mL (≈ 3.13 µM)
- MIC values [10]: 0.2 µg/mL (≈ 0.396 µM)
- MIC values [11]: > 100 µg/mL
- MIC values [12]: 12.5 µg/mL (≈ 24.8 µM)
- MIC values [13]: 0.78 µg/mL (≈ 1.55 µM)
- MIC values [14]: 12.5 µg/mL (≈ 24.8 µM)
- MIC values [15]: 0.39 µg/mL (≈ 0.773 µM)
- MIC values [16]: 1.56 µg/mL (≈ 3.09 µM)
- MIC values [17]: 1.56 µg/mL (≈ 3.09 µM)
- MIC values [18]: 1.56 µg/mL (≈ 3.09 µM)
- MIC values [19]: 0.2 µg/mL (≈ 0.396 µM)
- MIC values [20]: 0.39 µg/mL (≈ 0.773 µM)
- MIC values [21]: 12.5 µg/mL (≈ 24.8 µM)
- MIC values [22]: 0.2 µg/mL (≈ 0.396 µM)
- MIC values [23]: 0.39 µg/mL (≈ 0.773 µM)
- MIC values [24]: 0.2 µg/mL (≈ 0.396 µM)
- MIC values [25]: 50 µg/mL (≈ 99.1 µM)
- MIC values [26]: 0.78 µg/mL (≈ 1.55 µM)
- MIC values [27]: 0.78 µg/mL (≈ 1.55 µM)
- MIC values [28]: 0.39 µg/mL (≈ 0.773 µM)
- MIC values [29]: 1.56 µg/mL (≈ 3.09 µM)
